According to ChEMBL document CHEMBL1671626, “In vitro profiling of ceftaroline against a collection of recent bacterial clinical isolates from across the United States” (2008):
Converted amounts (≈) assume the structure as drawn.

Assays:
Assay type in all cases: functional
Streptococcus agalactiae [1] = test: Antibacterial activity against erythromycin-nonsusceptible Streptococcus agalactiae assessed as susceptible isolates by CLSI M7-A7 broth microdilution method
Streptococcus viridans [2] = test: Antibacterial activity against penicillin-nonsusceptible Streptococcus viridans by CLSI M7-A7 broth microdilution method
Streptococcus pyogenes [3] = test: Antibacterial activity against erythromycin-nonsusceptible Streptococcus pyogenes assessed as susceptible isolates by CLSI M7-A7 broth microdilution method
Streptococcus agalactiae [4] = test: Antibacterial activity against erythromycin-nonsusceptible Streptococcus agalactiae by CLSI M7-A7 broth microdilution method
Enterococcus faecium [5] = test: Antibacterial activity against vancomycin-resistant Enterococcus faecium assessed as susceptible isolates by CLSI M7-A7 broth microdilution method
Staphylococcus aureus [6] = test: Antibacterial activity against methicillin-susceptible Staphylococcus aureus by CLSI M7-A7 broth microdilution method
Staphylococcus aureus [7] = test: Antibacterial activity against coagulase-negative and oxacillin-susceptible Staphylococcus aureus by CLSI M7-A7 broth microdilution method
Staphylococcus aureus [8] = test: Antibacterial activity against coagulase-negative and oxacillin-resistant Staphylococcus aureus assessed as susceptible isolates by CLSI M7-A7 broth microdilution method
Staphylococcus aureus [9] = test: Antibacterial activity against coagulase-negative and oxacillin-susceptible Staphylococcus aureus assessed as susceptible isolates by CLSI M7-A7 broth microdilution method
Enterococcus faecium [10] = test: Antibacterial activity against vancomycin-resistant Enterococcus faecium assessed as resistant isolates by CLSI M7-A7 broth microdilution method
Enterococcus faecalis [11] = test: Antibacterial activity against vancomycin-susceptible Enterococcus faecalis assessed as susceptible isolates by CLSI M7-A7 broth microdilution method
Streptococcus viridans [12] = test: Antibacterial activity against penicillin-susceptible Streptococcus viridans assessed as susceptible isolates by CLSI M7-A7 broth microdilution method
Streptococcus pyogenes [13] = test: Antibacterial activity against erythromycin-nonsusceptible Streptococcus pyogenes by CLSI M7-A7 broth microdilution method
Enterococcus faecalis [14] = test: Antibacterial activity against vancomycin-resistant Enterococcus faecalis assessed as resistant isolates by CLSI M7-A7 broth microdilution method
Streptococcus pyogenes [15] = test: Antibacterial activity against erythromycin-susceptible Streptococcus pyogenes by CLSI M7-A7 broth microdilution method
Streptococcus viridans [16] = test: Antibacterial activity against penicillin-nonsusceptible Streptococcus viridans assessed as susceptible isolates by CLSI M7-A7 broth microdilution method
Staphylococcus aureus [17] = test: Antibacterial activity against methicillin-resistant Staphylococcus aureus by CLSI M7-A7 broth microdilution method
Streptococcus viridans [18] = test: Antibacterial activity against penicillin-nonsusceptible Streptococcus viridans assessed as resistant isolates by CLSI M7-A7 broth microdilution method
Streptococcus agalactiae [19] = test: Antibacterial activity against erythromycin-susceptible Streptococcus agalactiae assessed as susceptible isolates by CLSI M7-A7 broth microdilution method
Streptococcus pyogenes [20] = test: Antibacterial activity against erythromycin-susceptible Streptococcus pyogenes assessed as susceptible isolates by CLSI M7-A7 broth microdilution method
Enterococcus faecalis [21] = test: Antibacterial activity against vancomycin-susceptible Enterococcus faecalis assessed as resistant isolates by CLSI M7-A7 broth microdilution method
Staphylococcus aureus [22] = test: Antibacterial activity against methicillin-susceptible Staphylococcus aureus assessed as susceptible isolates by CLSI M7-A7 broth microdilution method
Staphylococcus aureus [23] = test: Antibacterial activity against methicillin-resistant Staphylococcus aureus assessed as susceptible isolates by CLSI M7-A7 broth microdilution method
Streptococcus pneumoniae [24] = test: Antibacterial activity against penicillin-resistant Streptococcus pneumoniae by CLSI M7-A7 broth microdilution method
Streptococcus pneumoniae [25] = test: Antibacterial activity against penicillin-susceptible Streptococcus pneumoniae by CLSI M7-A7 broth microdilution method
Enterococcus faecalis [26] = test: Antibacterial activity against vancomycin-resistant Enterococcus faecalis by CLSI M7-A7 broth microdilution method
Streptococcus viridans [27] = test: Antibacterial activity against penicillin-susceptible Streptococcus viridans by CLSI M7-A7 broth microdilution method
Staphylococcus aureus [28] = test: Antibacterial activity against coagulase-negative and oxacillin-resistant Staphylococcus aureus by CLSI M7-A7 broth microdilution method
Streptococcus agalactiae [29] = test: Antibacterial activity against erythromycin-susceptible Streptococcus agalactiae by CLSI M7-A7 broth microdilution method
Enterococcus faecalis [30] = test: Antibacterial activity against vancomycin-susceptible Enterococcus faecalis by CLSI M7-A7 broth microdilution method
Enterococcus faecium [31] = test: Antibacterial activity against vancomycin-resistant Enterococcus faecium by CLSI M7-A7 broth microdilution method

Work on `CCCCCCCCCC(=O)N[C@@H](Cc1c[nH]c2ccccc12)C(=O)N[C@H](CC(N)=O)C(=O)N[C@@H](CC(=O)O)C(=O)N[C@@H]1C(=O)NCC(=O)N[C@@H](CCCN)C(=O)N[C@@H](CC(=O)O)C(=O)N[C@H](C)C(=O)N[C@@H](CC(=O)O)C(=O)NCC(=O)N[C@H](CO)C(=O)N[C@@H]([C@H](C)CC(=O)O)C(=O)N[C@@H](CC(=O)c2ccccc2N)C(=O)O[C@@H]1C` yielded an Activity (Streptococcus agalactiae [1]) of 100%, an MIC50 (Streptococcus viridans [2]) of 0.25 µg/mL (≈ 0.154 µM) and an MIC90 (Streptococcus viridans [2]) of 0.5 µg/mL (≈ 0.309 µM). The Activity (Streptococcus pyogenes [3]) was 100%, the MIC50 (Streptococcus agalactiae [4]) was 0.12 µg/mL (≈ 0.074 µM) and the MIC90 (Streptococcus agalactiae [4]) was 0.25 µg/mL (≈ 0.154 µM). For the same molecule, the Activity (Enterococcus faecium [5]) was 100%, the MIC50 (Staphylococcus aureus [6]) was 0.25 µg/mL (≈ 0.154 µM) and the MIC90 (Staphylococcus aureus [6]) was 0.5 µg/mL (≈ 0.309 µM). For the same molecule, the MIC50 (Staphylococcus aureus [7]) was 0.25 µg/mL (≈ 0.154 µM), the MIC90 (Staphylococcus aureus [7]) was 0.5 µg/mL (≈ 0.309 µM) and the Activity (Staphylococcus aureus [8]) was 99.7%. For the same molecule, the Activity (Staphylococcus aureus [9]) was 100%, the Activity (Enterococcus faecium [10]) was 0% and the Activity (Enterococcus faecalis [11]) was 100%. For the same molecule, the Activity (Streptococcus viridans [12]) was 100%, the MIC (Streptococcus pyogenes [13]) was at most 0.03 µg/mL and the MIC50 (Streptococcus pyogenes [13]) was at most 0.03 µg/mL. The MIC90 (Streptococcus pyogenes [13]) was 0.25 µg/mL (≈ 0.154 µM), the Activity (Enterococcus faecalis [14]) was 0% and the MIC (Streptococcus pyogenes [15]) was at most 0.03 µg/mL. The MIC50 (Streptococcus pyogenes [15]) was at most 0.03 µg/mL, the MIC90 (Streptococcus pyogenes [15]) was 0.06 µg/mL (≈ 0.037 µM) and the Activity (Streptococcus viridans [16]) was 100%. For the same molecule, the MIC50 (Staphylococcus aureus [17]) was 0.25 µg/mL (≈ 0.154 µM), the MIC90 (Staphylococcus aureus [17]) was 0.5 µg/mL (≈ 0.309 µM) and the Activity (Streptococcus viridans [18]) was 0%. For the same molecule, the Activity (Streptococcus agalactiae [19]) was 100%, the Activity (Streptococcus pyogenes [20]) was 100% and the Activity (Enterococcus faecalis [21]) was 0%. The Activity (Staphylococcus aureus [22]) was 99.4%, the Activity (Staphylococcus aureus [23]) was 99.2% and the MIC50 (Streptococcus pneumoniae [24]) was 0.06 µg/mL (≈ 0.037 µM). The MIC90 (Streptococcus pneumoniae [24]) was 0.12 µg/mL (≈ 0.074 µM), the MIC50 (Streptococcus pneumoniae [25]) was 0.06 µg/mL (≈ 0.037 µM) and the MIC90 (Streptococcus pneumoniae [25]) was 0.12 µg/mL (≈ 0.074 µM). For the same molecule, the MIC50 (Enterococcus faecalis [26]) was 0.5 µg/mL (≈ 0.309 µM), the MIC90 (Enterococcus faecalis [26]) was 1 µg/mL (≈ 0.617 µM) and the MIC50 (Streptococcus viridans [27]) was 0.25 µg/mL (≈ 0.154 µM). For the same molecule, the MIC90 (Streptococcus viridans [27]) was 0.5 µg/mL (≈ 0.309 µM), the MIC50 (Staphylococcus aureus [28]) was 0.5 µg/mL (≈ 0.309 µM) and the MIC90 (Staphylococcus aureus [28]) was 0.5 µg/mL (≈ 0.309 µM). It also gave an MIC50 (Streptococcus agalactiae [29]) of 0.12 µg/mL (≈ 0.074 µM), an MIC90 (Streptococcus agalactiae [29]) of 0.12 µg/mL (≈ 0.074 µM) and an MIC50 (Enterococcus faecalis [30]) of 1 µg/mL (≈ 0.617 µM). It also gave an MIC90 (Enterococcus faecalis [30]) of 1 µg/mL (≈ 0.617 µM), an MIC50 (Enterococcus faecium [31]) of 2 µg/mL (≈ 1.23 µM) and an MIC90 (Enterococcus faecium [31]) of 4 µg/mL (≈ 2.47 µM).
